Data reported in the NIST ThermoML archive (doi:10.1016/j.jct.2018.04.014).
Numbers after ± are expanded uncertainties.

Legend:
[1] = Liquid; for viscosity / mass density: 93.4 kPa; for viscosity: Concentric cylinders viscometry; for mass density: Vibrating tube method; for vapor or sublimation pressure: Closed cell (Static) method
[2] = xn = mol fraction of the nth substance listed; conditions: 93.4 kPa, Liquid, x2 = 0.059; for viscosity: Concentric cylinders viscometry; for mass density: Vibrating tube method

C[S+](C)[O-] [dimethyl sulfoxide]
[1]
Conditions | mass density [kg/m3] | vapor or sublimation pressure [kPa] | viscosity [mPa·s]
293.15 K | 1101.2 ± 1.1 | – | 2.26 ± 0.05
303.15 K | 1091.2 ± 1.1 | – | 1.85 ± 0.04
313.15 K | 1081.1 ± 1.1 | – | 1.56 ± 0.04
323.15 K | 1071.1 ± 1 | – | 1.33 ± 0.03
333.15 K | 1061.2 ± 1 | – | 1.16 ± 0.03
343.15 K | 1051.3 ± 1 | – | 1.02 ± 0.02
353.1 K | – | 2 ± 0.2 | –
353.15 K | 1041.1 ± 1 | – | 0.905 ± 0.021
363.1 K | – | 3.2 ± 0.3 | –
363.15 K | 1031.3 ± 1 | – | 0.815 ± 0.019
373.1 K | – | 5 ± 0.5 | –
373.15 K | 1021.4 ± 1 | – | 0.741 ± 0.018
383.1 K | – | 7.6 ± 0.7 | –
393.1 K | – | 11.2 ± 1 | –
403.1 K | – | 16 ± 1.4 | –
413.1 K | – | 22.7 ± 2 | –
423.1 K | – | 31.6 ± 2.8 | –
433.1 K | – | 43.2 ± 4.5 | –

C=CCn1cc[n+](C)c1.[Cl-] [1-allyl-3-methylimidazolium chloride] + O
[2]
Conditions | mass density [kg/m3] | viscosity [mPa·s]
323.15 K | 1132.7 ± 1.1 | 212 ± 6
333.15 K | 1127.1 ± 1.1 | 115 ± 3
343.15 K | 1121.5 ± 1 | 68.7 ± 1.6
353.15 K | 1116 ± 1 | 44 ± 1
363.15 K | 1110.5 ± 1 | 30 ± 0.7
373.15 K | 1105.2 ± 1 | 21.4 ± 0.5
